Where a name gives a salt, the structure may show the parent alone.
Assays:
Assay type in all cases: physicochemical
[1] = Determination of the solubility of dasatinib salts (shake flask 37° C., HPLC); settings: 6 hour shaking, 18 hour sedimentation
Protocol: Considering the above mentioned facts our solubility measurements were carried out on three different pH values (pH 1, pH 4.5 and pH 6.8).
Determination of the Solubility of Dasatinib Salts (Measurement Conditions)
Preparation of Sample Mixture:
• 100 mg of dasatinib salt are weighed in a 20 ml Erlenmeyer flask whereupon 10 ml of medium are added and it is shaked for 6 hours at a temperature of 37° C. on 100 rpm. After sedimentation for 18 hours at a temperature of 37° C. the settled solution is filtered through a sieve with 0.45 μm pores and the solution is diluted up to 20 ml with medium.

[2] = Storage stability test: quantity of impurities by HPLC and change thereof; settings: for stability in the storage tests (in words): storage tests carried out under various conditions, thermal stress and forced stability tests
From the text: In course of the thermal stress test and the forced stability test the decompositions in a pharmaceutical composition occurring during storage are constructed essentially in an accelerated manner. […] The advantageous properties of the new dasatinib salts of the present invention are significant from the point of view of the formulation of pharmaceutical compositions, the storage and the minimization of the harmful effects exerted in the human body.
The stability of the new dasatinib salts of the present invention were subjected to detailed tests.
Our results regarding the quantity of the impurities and change thereof are shown in the tables below (expressed in percentage).
Measuring conditions are the same as the determination of purity profile below.
Determination of the Impurities of Dasatinib Salts by HPLC (Measurement Conditions)

[3] = Water adsorption, DVS (dynamic vapor sorption) analysis; settings: after drying
From the text: As it is disclosed in WO2007/035874 paragraph [0096] dasatinib mono HCl includes a cavity or channel, which may be partially or fully occupied by solvent or a mixture of solvent. […] Further salts disclosed in the prior art also contain solvent adsorbed on the surface or in the form of solvate. These forms are nor suitable for pharmaceutical application. […] Therefore we carried out our comparative experiments between dasatinib base monohydrate and the new salts of the present invention.

[4] = 3 week, 40° C./70% RH, listed as Anhydrous dasatinib p-toluenesulfonic acid (1:1) salt Form I

Cc1nc(Nc2ncc(C(=O)Nc3c(C)cccc3Cl)s2)cc(N2CCN(CCO)CC2)n1 [dasatinib tosilate (1:1) Form II anhydrate] [N-(2-Chloro-6-methylphenyl)-2-[6-[4-(2-hydroxyethyl)piperazin-1-yl]-2-methylpyrimidin-4-ylamino]-1,3-thiazole-5-carboxamide]
solubility ([1]; 0.1M HCl (pH 1)): 5702 µg/mL
solubility ([1]; pH = 4.5 phosphate buffer): 2805 µg/mL
solubility ([1]; pH = 6.8 phosphate buffer): 11 µg/mL

Cc1nc(Nc2ncc(C(=O)Nc3c(C)cccc3Cl)s2)cc(N2CCN(CCO)CC2)n1 [dasatinib cyclamic acid (1:1) salt Form I] [N-(2-Chloro-6-methylphenyl)-2-[6-[4-(2-hydroxyethyl)piperazin-1-yl]-2-methylpyrimidin-4-ylamino]-1,3-thiazole-5-carboxamide]
Impurity Dasatinib N-oxyde (RT 12.2-12.4) ([2]; 3 week, 25° C./90% RH): 0.03%
Impurity Deshydroxyethyl dasatinib (RT 11.0) ([2]; 3 week, 25° C./90% RH): 0.03%
Impurity Ethylene-diamine intermedier (RT 9.0-9.3) ([2]; 3 week, 25° C./90% RH): 0.02%
Impurity Summary (%) ([2]; 3 week, 25° C./90% RH): 0.11%
Impurity, unnamed, RT 15.5 ([2]; 3 week, 25° C./90% RH): 0.03%
Impurity Dasatinib N-oxyde (RT 12.2-12.4) ([2]; 3 week, 40° C./70% RH): 0.03%
Impurity Deshydroxyethyl dasatinib (RT 11.0) ([2]; 3 week, 40° C./70% RH): 0.03%
Impurity Summary (%) ([2]; 3 week, 40° C./70% RH): 0.09%
Impurity, unnamed, RT 15.5 ([2]; 3 week, 40° C./70% RH): 0.03%
Impurity Dasatinib N-oxyde (RT 12.2-12.4) ([2]; 6 week, 25° C./90% RH): 0.03%
Impurity Deshydroxyethyl dasatinib (RT 11.0) ([2]; 6 week, 25° C./90% RH): 0.03%
Impurity Summary (%) ([2]; 6 week, 25° C./90% RH): 0.06%
Impurity Dasatinib N-oxyde (RT 12.2-12.4) ([2]; 6 week, 40° C./70% RH): 0.03%
Impurity Deshydroxyethyl dasatinib (RT 11.0) ([2]; 6 week, 40° C./70% RH): 0.03%
Impurity Summary (%) ([2]; 6 week, 40° C./70% RH): 0.06%
Impurity Dasatinib N-oxyde (RT 12.2-12.4) ([2]; starting sample): 0.03%
Impurity Deshydroxyethyl dasatinib (RT 11.0) ([2]; starting sample): 0.03%
Impurity Summary (%) ([2]; starting sample): 0.09%
Impurity, unnamed, RT 15.5 ([2]; starting sample): 0.03%
stability in the storage tests (in words) [2]: particularly stable
solubility ([1]; 0.1M HCl (pH 1)): 8533 µg/mL
solubility ([1]; pH = 4.5 phosphate buffer): 6194 µg/mL
solubility ([1]; pH = 6.8 phosphate buffer): 5 µg/mL

Cc1nc(Nc2ncc(C(=O)Nc3c(C)cccc3Cl)s2)cc(N2CCN(CCO)CC2)n1 [dasatinib tosilate (1:1) Form I anhydrate] [N-(2-Chloro-6-methylphenyl)-2-[6-[4-(2-hydroxyethyl)piperazin-1-yl]-2-methylpyrimidin-4-ylamino]-1,3-thiazole-5-carboxamide]
Impurity, unnamed, RT 15.5 ([2]; 3 week, 25° C./90% RH): 0.03%
Impurity Summary (%) ([2]; 3 week, 25° C./90% RH, listed as Anhydrous dasatinib p-toluenesulfonic acid (1:1) salt Form I): 0.03%
Impurity Ethylene-diamine intermedier (RT 9.0-9.3) [2, 4]: 0.03%
Impurity Summary (%) [2, 4]: 0.03%
Impurity, unnamed, RT 15.5 ([2]; starting sample): 0.03%
Impurity Summary (%) ([2]; starting sample, listed as Anhydrous dasatinib p-toluenesulfonic acid (1:1) salt Form I): 0.03%
stability in the storage tests (in words) ([2]; listed as anhydrous dasatinib p-toluenesulfonic acid (1:1) salt Form I): particularly stable
solubility ([1]; 0.1M HCl (pH 1)): 5365 µg/mL
solubility ([1]; pH = 4.5 phosphate buffer): 4510 µg/mL

Cc1nc(Nc2ncc(C(=O)Nc3c(C)cccc3Cl)s2)cc(N2CCN(CCO)CC2)n1 [dasatinib hydrogen bromide (1:2) salt, N-(2-Chloro-6-methylphenyl)-2-[6-[4-(2-hydroxyethyl)piperazin-1-yl]-2-methylpyrimidin-4-ylamino]-1,3-thiazole-5-carboxamide]
solubility ([1]; 0.1M HCl (pH 1)): 7994 µg/mL
solubility ([1]; pH = 4.5 phosphate buffer): 1056 µg/mL

Cc1nc(Nc2ncc(C(=O)Nc3c(C)cccc3Cl)s2)cc(N2CCN(CCO)CC2)n1 [dasatinib diHCl salt, N-(2-Chloro-6-methylphenyl)-2-[6-[4-(2-hydroxyethyl)piperazin-1-yl]-2-methylpyrimidin-4-ylamino]-1,3-thiazole-5-carboxamide]
water adsorption property (in words) [3]: tends to adsorb water

Cc1nc(Nc2ncc(C(=O)Nc3c(C)cccc3Cl)s2)cc(N2CCN(CCO)CC2)n1 [dasatinib mesilate (1:2), N-(2-Chloro-6-methylphenyl)-2-[6-[4-(2-hydroxyethyl)piperazin-1-yl]-2-methylpyrimidin-4-ylamino]-1,3-thiazole-5-carboxamide]
solubility ([1]; pH = 4.5 phosphate buffer): 805 µg/mL
solubility ([1]; pH = 6.8 phosphate buffer): 17 µg/mL

Cc1nc(Nc2ncc(C(=O)Nc3c(C)cccc3Cl)s2)cc(N2CCN(CCO)CC2)n1 [dasatinib cyclamic acid (1:1) salt Form II] [N-(2-Chloro-6-methylphenyl)-2-[6-[4-(2-hydroxyethyl)piperazin-1-yl]-2-methylpyrimidin-4-ylamino]-1,3-thiazole-5-carboxamide]
Impurity Dasatinib N-oxyde (RT 12.2-12.4) ([2]; 3 week, 25° C./90% RH): 0.04%
Impurity Deshydroxyethyl dasatinib (RT 11.0) ([2]; 3 week, 25° C./90% RH): 0.04%
Impurity Ethylene-diamine intermedier (RT 9.0-9.3) ([2]; 3 week, 25° C./90% RH): 0.03%
Impurity Summary (%) ([2]; 3 week, 25° C./90% RH): 0.11%
Impurity Deshydroxyethyl dasatinib (RT 11.0) ([2]; 3 week, 40° C./70% RH): 0.04%
Impurity Ethylene-diamine intermedier (RT 9.0-9.3) ([2]; 3 week, 40° C./70% RH): 0.03%
Impurity Summary (%) ([2]; 3 week, 40° C./70% RH): 0.07%
Impurity Deshydroxyethyl dasatinib (RT 11.0) ([2]; 6 week, 25° C./90% RH): 0.04%
Impurity Ethylene-diamine intermedier (RT 9.0-9.3) ([2]; 6 week, 25° C./90% RH): 0.03%
Impurity Summary (%) ([2]; 6 week, 25° C./90% RH): 0.07%
Impurity Dasatinib N-oxyde (RT 12.2-12.4) ([2]; 6 week, 40° C./70% RH): 0.03%
Impurity Deshydroxyethyl dasatinib (RT 11.0) ([2]; 6 week, 40° C./70% RH): 0.04%
Impurity Ethylene-diamine intermedier (RT 9.0-9.3) ([2]; 6 week, 40° C./70% RH): 0.02%
Impurity Summary (%) ([2]; 6 week, 40° C./70% RH): 0.09%
Impurity Deshydroxyethyl dasatinib (RT 11.0) ([2]; starting sample): 0.04%
Impurity Ethylene-diamine intermedier (RT 9.0-9.3) ([2]; starting sample): 0.03%
Impurity Summary (%) ([2]; starting sample): 0.07%
stability in the storage tests (in words) [2]: particularly stable
solubility ([1]; 0.1M HCl (pH 1)): 8862 µg/mL
solubility ([1]; pH = 4.5 phosphate buffer): 4544 µg/mL

Cc1nc(Nc2ncc(C(=O)Nc3c(C)cccc3Cl)s2)cc(N2CCN(CCO)CC2)n1 [dasatinib mono HCl salt, N-(2-Chloro-6-methylphenyl)-2-[6-[4-(2-hydroxyethyl)piperazin-1-yl]-2-methylpyrimidin-4-ylamino]-1,3-thiazole-5-carboxamide]
water adsorption property (in words) [3]: changeable, especially after drying

Cc1nc(Nc2ncc(C(=O)Nc3c(C)cccc3Cl)s2)cc(N2CCN(CCO)CC2)n1 [dasatinib tosilate (1:1) dihydrate, N-(2-Chloro-6-methylphenyl)-2-[6-[4-(2-hydroxyethyl)piperazin-1-yl]-2-methylpyrimidin-4-ylamino]-1,3-thiazole-5-carboxamide]
solubility ([1]; 0.1M HCl (pH 1)): 4898 µg/mL
solubility ([1]; pH = 4.5 phosphate buffer): 1641 µg/mL
solubility ([1]; pH = 6.8 phosphate buffer): 10 µg/mL

Cc1nc(Nc2ncc(C(=O)Nc3c(C)cccc3Cl)s2)cc(N2CCN(CCO)CC2)n1 [Dasatinib monohydrate, N-(2-Chloro-6-methylphenyl)-2-[6-[4-(2-hydroxyethyl)piperazin-1-yl]-2-methylpyrimidin-4-ylamino]-1,3-thiazole-5-carboxamide, reference compound]
Impurity Dasatinib N-oxyde (RT 12.2-12.4) ([2]; 3 week, 25° C./90% RH): 0.03%
Impurity Dasatinib imp 2 (RT 5.2) ([2]; 3 week, 25° C./90% RH): 0.11%
Impurity Dasatinib imp 3 (RT 18.9) ([2]; 3 week, 25° C./90% RH): 0.04%
Impurity Deshydroxyethyl dasatinib (RT 11.0) ([2]; 3 week, 25° C./90% RH): 0.12%
Impurity Ethylene-diamine intermedier (RT 9.0-9.3) ([2]; 3 week, 25° C./90% RH): 0.06%
Impurity Summary (%) ([2]; 3 week, 25° C./90% RH): 0.43%
Impurity, unnamed, RT 20.3 ([2]; 3 week, 25° C./90% RH): 0.07%
Impurity Dasatinib N-oxyde (RT 12.2-12.4) ([2]; 3 week, 40° C./70% RH): 0.03%
Impurity Dasatinib imp 2 (RT 5.2) ([2]; 3 week, 40° C./70% RH): 0.10%
Impurity Dasatinib imp 3 (RT 18.9) ([2]; 3 week, 40° C./70% RH): 0.03%
Impurity Deshydroxyethyl dasatinib (RT 11.0) ([2]; 3 week, 40° C./70% RH): 0.12%
Impurity Ethylene-diamine intermedier (RT 9.0-9.3) ([2]; 3 week, 40° C./70% RH): 0.08%
Impurity Summary (%) ([2]; 3 week, 40° C./70% RH): 0.43%
Impurity, unnamed, RT 20.3 ([2]; 3 week, 40° C./70% RH): 0.07%
Impurity Dasatinib imp 2 (RT 5.2) ([2]; 6 week, 25° C./90% RH): 0.10%
Impurity Dasatinib imp 3 (RT 18.9) ([2]; 6 week, 25° C./90% RH): 0.04%
Impurity Deshydroxyethyl dasatinib (RT 11.0) ([2]; 6 week, 25° C./90% RH): 0.12%
Impurity Ethylene-diamine intermedier (RT 9.0-9.3) ([2]; 6 week, 25° C./90% RH): 0.03%
Impurity Summary (%) ([2]; 6 week, 25° C./90% RH): 0.39%
Impurity, unnamed, RT 19.6 ([2]; 6 week, 25° C./90% RH): 0.02%
Impurity, unnamed, RT 20.3 ([2]; 6 week, 25° C./90% RH): 0.08%
Impurity Dasatinib N-oxyde (RT 12.2-12.4) ([2]; 6 week, 40° C./70% RH): 0.02%
Impurity Dasatinib imp 2 (RT 5.2) ([2]; 6 week, 40° C./70% RH): 0.11%
Impurity Dasatinib imp 3 (RT 18.9) ([2]; 6 week, 40° C./70% RH): 0.04%
Impurity Deshydroxyethyl dasatinib (RT 11.0) ([2]; 6 week, 40° C./70% RH): 0.12%
Impurity Ethylene-diamine intermedier (RT 9.0-9.3) ([2]; 6 week, 40° C./70% RH): 0.03%
Impurity Summary (%) ([2]; 6 week, 40° C./70% RH): 0.41%
Impurity, unnamed, RT 19.6 ([2]; 6 week, 40° C./70% RH): 0.02%
Impurity, unnamed, RT 20.3 ([2]; 6 week, 40° C./70% RH): 0.07%
Impurity Dasatinib N-oxyde (RT 12.2-12.4) ([2]; starting sample): 0.02%
Impurity Dasatinib imp 2 (RT 5.2) ([2]; starting sample): 0.11%
Impurity Dasatinib imp 3 (RT 18.9) ([2]; starting sample): 0.04%
Impurity Deshydroxyethyl dasatinib (RT 11.0) ([2]; starting sample): 0.12%
Impurity Ethylene-diamine intermedier (RT 9.0-9.3) ([2]; starting sample): 0.03%
Impurity Summary (%) ([2]; starting sample): 0.38%
Impurity, unnamed, RT 20.3 ([2]; starting sample): 0.08%
stability in the storage tests (in words) ([2]; listed as dasatinib base monohydrate): most stable and suitable form disclosed in the prior art
solubility ([1]; 0.1M HCl (pH 1)): 5757 µg/mL
solubility ([1]; pH = 4.5 phosphate buffer): 555 µg/mL
solubility ([1]; pH = 6.8 phosphate buffer): 156 µg/mL
